Data: US9725416B2, “Ethynyl derivatives” (Hoffmann-La Roche Inc., priority 2014, dated 2017)

Target: T1, human mGlu4 receptor (Homo sapiens, UniProt Q14833)
T1 construct: expressed in transfected cells; host or cells: HEK-293 (monoclonal, stably transfected)
Assay: Ca2+ mobilization in vitro assay on recombinant human mGlu4 expressed in HEK293 cells (mGlu4 PAM)
Type: cell-based
Conditions: for Emax: HEK293, maximal response in % of the maximal stimulatory effect obtained with saturating concentrations of L-AP4, read-out: Eff. (%); for EC50: HEK-293 cells, Ca2+ mobilization, L-AP4 added at EC20
Method: Determination of EC50 Values Using a Ca2+ mobilization in vitro Assay on Recombinant Human mGlu4 Expressed in HEK293 cells:
A monoclonal HEK-293 cell line stably transfected with a cDNA encoding for the human mGlu4 receptor was generated; for the work with mGlu4 Positive Allosteric Modulators (PAMs), a cell line with low receptor expression levels and low constitutive receptor activity was selected to allow the differentiation of agonistic versus PAM activity. Cells were cultured according to standard protocols (Freshney, 2000) in Dulbecco's Modified Eagle Medium with high glucose supplemented with 1 mM glutamine, 10% (vol/vol) heat-inactivated bovine calf serum, Penicillin/Streptomycin, 50 μg/ml hygromycin and 15 μg/ml blasticidin (all cell culture reagents and antibiotics from Invitrogen, Basel, Switzerland).
About 24 hrs before an experiment, 5×10^4 cells/well were seeded in poly-D-lysine coated, black/clear-bottomed 96-well plates. The cells were loaded with 2.5 μM Fluo-4AM in loading buffer (1×HBSS, 20 mM HEPES) for 1 hr at 37° C. and washed five times with loading buffer. The cells were transferred into a Functional Drug Screening System 7000 (Hamamatsu, Paris, France), and 11 half logarithmic serial dilutions of test compound at 37° C. were added and the cells were incubated for 10-30 min. with on-line recording of fluorescence. Following this pre-incubation step, the agonist (2S)-2-amino-4-phosphonobutanoic acid (L-AP4) was added to the cells at a concentration corresponding to EC20 with on-line recording of fluorescence; in order to account for day-to-day variations in the responsiveness of cells, the EC20 of L-AP4 was determined immediately ahead of each experiment by recording of a full dose-response curve of L-AP4.
Responses were measured as peak increase in fluorescence minus basal (i.e. fluorescence without addition of L-AP4), normalized to the maximal stimulatory effect obtained with saturating concentrations of L-AP4. Graphs were plotted with the % maximal stimulatory using XLfit, a curve fitting program that iteratively plots the data using Levenburg Marquardt algorithm. The single site competition analysis equation used was y=A+((B−A)/(1+((x/C)D))), where y is the % maximal stimulatory effect, A is the minimum y, B is the maximum y, C is the EC50, x is the log 10 of the concentration of the competing compound and D is the slope of the curve (the Hill Coefficient). From these curves the EC50 (drug concentration at which 50% of the maximal receptor activation was achieved), the Hill coefficient as well as the maximal response in % of the maximal stimulatory effect obtained with saturating concentrations of L-AP4 were calculated (see FIG. 1).
A depression of the signal observed after addition of the EC20 concentration of L-AP4was indicative of an inhibitory activity of the test compound.

T1 sequence (Q14833 33-912): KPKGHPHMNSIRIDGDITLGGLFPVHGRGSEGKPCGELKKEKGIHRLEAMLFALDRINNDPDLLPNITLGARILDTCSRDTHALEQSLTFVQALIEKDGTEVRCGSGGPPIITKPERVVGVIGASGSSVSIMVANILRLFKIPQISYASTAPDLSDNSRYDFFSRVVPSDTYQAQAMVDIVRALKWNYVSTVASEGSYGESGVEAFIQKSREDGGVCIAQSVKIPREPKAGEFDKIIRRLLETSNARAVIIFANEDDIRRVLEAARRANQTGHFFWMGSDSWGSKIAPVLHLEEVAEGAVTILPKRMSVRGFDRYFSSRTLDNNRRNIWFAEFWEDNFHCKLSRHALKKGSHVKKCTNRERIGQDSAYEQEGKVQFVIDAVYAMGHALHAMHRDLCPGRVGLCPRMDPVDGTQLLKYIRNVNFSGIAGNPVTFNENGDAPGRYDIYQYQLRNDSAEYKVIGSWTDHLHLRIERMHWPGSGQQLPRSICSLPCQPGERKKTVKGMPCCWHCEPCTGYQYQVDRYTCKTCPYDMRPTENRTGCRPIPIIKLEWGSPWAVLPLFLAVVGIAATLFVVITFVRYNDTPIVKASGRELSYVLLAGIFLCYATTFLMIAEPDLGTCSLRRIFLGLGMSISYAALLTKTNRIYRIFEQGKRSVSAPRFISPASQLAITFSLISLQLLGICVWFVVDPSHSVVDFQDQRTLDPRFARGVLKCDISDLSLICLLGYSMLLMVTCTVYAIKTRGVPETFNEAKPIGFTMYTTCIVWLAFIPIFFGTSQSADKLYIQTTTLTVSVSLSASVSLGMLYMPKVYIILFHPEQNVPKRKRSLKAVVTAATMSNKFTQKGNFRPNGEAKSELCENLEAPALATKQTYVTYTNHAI

Emax [%] | EC50 [nM] | Structure (SMILES)
112 | 224 | CN1C(=O)N(c2c(F)cc(C#Cc3cccnc3)cc2F)C(=O)CC1(C)c1cccc(Cl)c1 (racemic) [Example 39, (6RS)-6-(3-Chlorophenyl)-3-[2,6-difluoro-4-[2-(3-pyridyl)ethynyl]phenyl]-1,6-dimethyl-hexahydropyrimidine-2,4-dione]
109 | 394 | CN1C(=O)N(c2c(F)cc(C#Cc3cccnc3)cc2F)C(=O)CC1(C)c1ccccc1Cl (racemic) [Example 40, (6RS)-6-(2-Chlorophenyl)-3-[2,6-difluoro-4-[2-(3-pyridyl)ethynyl]phenyl]-1,6-dimethyl-hexahydropyrimidine-2,4-dione]
115 | 229 | CN1C(=O)N(c2c(F)cc(C#Cc3cccnc3)cc2F)C(=O)CC1(C)c1ccc(Cl)cc1 (racemic) [Example 41, (6RS)-6-(4-Chlorophenyl)-3-[2,6-difluoro-4-[2-(3-pyridyl)ethynyl]phenyl]-1,6-dimethyl-hexahydropyrimidine-2,4-dione]
116 | 165 | COc1cccc(C2(C)CC(=O)N(c3c(F)cc(C#Cc4cccnc4)cc3F)C(=O)N2C)c1 (racemic) [Example 42, (6RS)-3-[2,6-Difluoro-4-[2-(3-pyridyl)ethynyl]phenyl]-6-(3-methoxyphenyl)-1,6-dimethyl-hexahydropyrimidine-2,4-dione]
92 | 75 | CC(C)(C)C1(C)CC(=O)N(c2c(F)cc(C#Cc3ccccc3)cc2F)C(=O)N1 (racemic) [Example 43, (6RS)-6-tert-Butyl-3-[2,6-difluoro-4-(2-phenylethynyl)phenyl]-6-methyl-hexahydropyrimidine-2,4-dione]
109 | 66 | CN1C(=O)N(c2c(F)cc(C#Cc3ccccc3)cc2F)C(=O)CC1(C)C(C)(C)C (racemic) [Example 44, (6RS)-6-tert-Butyl-3-[2,6-difluoro-4-(2-phenylethynyl)phenyl]-1,6-dimethyl-hexahydropyrimidine-2,4-dione]
107 | 72 | CN1C(=O)N(c2ncc(C#Cc3ccccc3)cc2F)C(=O)CC1(C)c1ccccc1 (racemic) [Example 45, (6RS)-3-[3-Fluoro-5-(2-phenylethynyl)-2-pyridyl]-1,6-dimethyl-6-phenyl-hexahydropyrimidine-2,4-dione]
105 | 116 | CN1C(=O)N(c2ncc(C#Cc3ccccc3)cc2C(F)(F)F)C(=O)CC1(C)c1ccccc1 (racemic) [Example 46, (6RS)-1,6-Dimethyl-6-phenyl-3-[5-(2-phenylethynyl)-3-(trifluoromethyl)-2-pyridyl]hexahydropyrimidine-2,4-dione]
121 | 132 | CN1C(=O)N(c2ccc(C#Cc3ccccc3)cc2Cl)C(=O)CC1(C)c1cccnc1 (racemic) [Example 47, (6RS)-3-[2-Chloro-4-(2-phenylethynyl)phenyl]-1,6-dimethyl-6-(3-pyridyl)hexahydropyrimidine-2,4-dione]
108 | 88 | CCC1(c2ccccc2)CC(=O)N(c2c(F)cc(C#Cc3cccnc3)cc2F)C(=O)N1C (racemic) [Example 48, (6RS)-3-[2,6-Difluoro-4-[2-(3-pyridyl)ethynyl]phenyl]-6-ethyl-1-methyl-6-phenyl-hexahydropyrimidine-2,4-dione]
108 | 88 | CN1C(=O)N(c2c(F)cc(C#Cc3ccccc3)cc2F)C(=O)CC1(C)c1ccc(Cl)nc1 (racemic) [Example 51, (6RS)-6-(6-Chloro-3-pyridyl)-3-[2,6-difluoro-4-(2-phenylethynyl)phenyl]-1,6-dimethyl-hexahydropyrimidine-2,4-dione]
91 | 82 | CN1C(=O)N(c2c(F)cc(C#Cc3cccnc3)cc2F)C(=O)CC1(c1ccccc1)C(F)(F)F (racemic) [Example 72, (6RS)-3-[2,6-Difluoro-4-[2-(3-pyridyl)ethynyl]phenyl]-1-methyl-6-phenyl-6-(trifluoromethyl)hexahydropyrimidine-2,4-dione]
100 | 108 | CC12CC(=O)N(c3c(F)cc(C#Cc4ccccc4)cc3Cl)C(=O)N1CCNC2=O (racemic) [Example 86, (9aRS)-7-[2-Chloro-6-fluoro-4-(2-phenylethynyl)phenyl]-9a-methyl-2,3,4,9-tetrahydropyrazino[1,2-c]pyrimidine-1,6,8-trione]
119 | 125 | CN1C(=O)N(c2c(F)cc(C#Cc3ccccc3)cc2F)C(=O)C2CCCC21C (stereo in doubt) [Example 14, (4aRS,7aRS)-3-[2,6-Difluoro-4-(2-phenylethynyl)phenyl]-1,7a-dimethyl-4a,5,6,7-tetrahydrocyclopenta[d]pyrimidine-2,4-dione]
178 | 50 | CN1C(=O)N(c2c(F)cc(C#Cc3cccnc3)cc2F)C(=O)CC1(C)c1ccccc1 (stereo in doubt) [Example 19, (6S)-3-[2,6-Difluoro-4-[2-(3-pyridyl)ethynyl]phenyl]-1,6-dimethyl-6-phenyl-hexahydropyrimidine-2,4-dione]
175 | 239 | CN1C(=O)N(c2c(F)cc(C#Cc3cccnc3)cc2F)C(=O)CC1(C)c1ccccc1 (stereo in doubt) [Example 20, (6R)-3-[2,6-Difluoro-4-[2-(3-pyridyl)ethynyl]phenyl]-1,6-dimethyl-6-phenyl-hexahydropyrimidine-2,4-dione]
191 | 92 | CN1C(=O)N(c2c(F)cc(C#Cc3ccccc3)cc2F)C(=O)CC1(C)C [Example 1, 3-[2,6-Difluoro-4-(2-phenylethynyl)phenyl]-1,6,6-trimethyl-hexahydropyrimidine-2,4-dione]
107 | 341 | CN1C(=O)N(c2ccc(C#Cc3ccccc3)cc2Cl)C(=O)CC1(C)C [Example 2, 3-[2-Chloro-4-(2-phenylethynyl)phenyl]-1,6,6-trimethyl-hexahydropyrimidine-2,4-dione]
105 | 245 | CN1C(=O)N(c2ccc(C#Cc3ccccc3)cc2Cl)C(=O)CC12CCCCC2 [Example 3, 3-[2-Chloro-4-(2-phenylethynyl)phenyl]-1-methyl-1,3-diazaspiro[5.5]undecane-2,4-dione]
103 | 388 | CN1C(=O)N(c2ccc(C#Cc3ccccc3)cc2Cl)C(=O)CC12CCOCC2 [Example 4, 3-[2-Chloro-4-(2-phenylethynyl)phenyl]-1-methyl-9-oxa-1,3-diazaspiro[5.5]undecane-2,4-dione]
93 | 304 | CN1C(=O)N(c2ccc(C#Cc3ccccc3)cc2Cl)C(=O)CC12CCC2 [Example 5, 7-[2-Chloro-4-(2-phenylethynyl)phenyl]-5-methyl-5,7-diazaspiro[3.5]nonane-6,8-dione]
142 | 72 | CN1C(=O)N(c2c(F)cc(C#Cc3ccccc3)cc2F)C(=O)CC12CCCC2 [Example 6, 8-[2,6-Difluoro-4-(2-phenylethynyl)phenyl]-6-methyl-6,8-diazaspiro[4.5]decane-7,9-dione]
110 | 429 | CN1C(=O)N(c2c(F)cc(C#Cc3cccnc3)cc2Cl)C(=O)CC1(C)C [Example 9, 3-[2-Chloro-6-fluoro-4-[2-(3-pyridyl)ethynyl]phenyl]-1,6,6-trimethyl-hexahydropyrimidine-2,4-dione]
169 | 256 | CCN1C(=O)N(c2c(F)cc(C#Cc3cccnc3)cc2Cl)C(=O)CC1(C)C [Example 10, 3-[2-Chloro-6-fluoro-4-[2-(3-pyridyl)ethynyl]phenyl]-1-ethyl-6,6-dimethyl-hexahydropyrimidine-2,4-dione]
106 | 145 | CCC1(CC)CC(=O)N(c2c(F)cc(C#Cc3ccccc3)cc2F)C(=O)N1 [Example 21, 3-[2,6-Difluoro-4-(2-phenylethynyl)phenyl]-6,6-diethyl-hexahydropyrimidine-2,4-dione]
137 | 73 | CCC1(CC)CC(=O)N(c2c(F)cc(C#Cc3ccccc3)cc2F)C(=O)N1C [Example 22, 3-[2,6-Difluoro-4-(2-phenylethynyl)phenyl]-6,6-diethyl-1-methyl-hexahydropyrimidine-2,4-dione]
